Data from patent publication US12358932B2, “Chemical compounds” (BORAH, INC., priority 2019, dated 2025).

Molecular target: T1, Recombinant human PDE4B (Homo sapiens, UniProt Q07343)
T1 construct: aa 305-end; GST (N); made in house; host or cells: Sf9 insect cells (baculovirus)
Assay: PDE4B Phosphodiesterase Assay
Type: biochemical
Set-up: key to Activity Note: PDE4: The (+) symbols identify a compound of the present disclosure with the noted target activity; +*: The (*) symbols indicate preferential activity, where the greater number identifies the most preferred compounds; +**: The (*) symbols indicate preferential activity, where the greater number identifies the most preferred compounds; +***: The (*) symbols indicate preferential activity, where the greater number identifies the most preferred compounds
Details: compound list; + = noted target activity
Procedure: The assay is based on the fluorescence polarization measuring AMP/GMP production as a result of the enzyme activity by displacement of Tracer binding to the AMP/GMP antibody. • Reaction Buffer: 10 mM Tris-HCl, pH 7.5, 5 mM MgCl2, 0.01% Brij 35, 1 mM DTT and 1% DMSO. • Enzyme: Recombinant human PDE4B (Gene Accession #NM_002600; aa 305-end) was expressed by baculovirus in Sf9 insect cells using an N-terminal GST tag. Mw=78 kDa. • Substrate: 1 μM cAMP • Detection: Transcreener® AMP2/GMP2 Antibody AMP2/GMP2 AlexaFluor 633 Tracer Reaction Procedure: • 1. Prepared indicated enzyme and substrate in freshly prepared Reaction Buffer • 2. Delivered enzyme solution into the reaction well • 3. Delivered compounds in 100% DMSO into the enzyme solution by Acoustic technology (Echo550; nanoliter range), incubated for 10 min at room temperature • 4. Delivered substrate solution into the reaction well to initiate the reaction • 5. Incubated for 1 h at room temperature • 6. Added detection mixture (Tracer and antibody in the stop buffer) to stop the reaction and incubated for 90 min with gentle mixing. The fluorescence polarization was measured at Ex/Em 620/688.
Data Analysis: The FP signals were converted into nM product based on an AMP/GMP standard curve and calculated % Enzyme activity relative to DMSO control by Excel. The curve fit was performed using GraphPad prism.

T1 sequence (Q07343 305-736 limits assumed): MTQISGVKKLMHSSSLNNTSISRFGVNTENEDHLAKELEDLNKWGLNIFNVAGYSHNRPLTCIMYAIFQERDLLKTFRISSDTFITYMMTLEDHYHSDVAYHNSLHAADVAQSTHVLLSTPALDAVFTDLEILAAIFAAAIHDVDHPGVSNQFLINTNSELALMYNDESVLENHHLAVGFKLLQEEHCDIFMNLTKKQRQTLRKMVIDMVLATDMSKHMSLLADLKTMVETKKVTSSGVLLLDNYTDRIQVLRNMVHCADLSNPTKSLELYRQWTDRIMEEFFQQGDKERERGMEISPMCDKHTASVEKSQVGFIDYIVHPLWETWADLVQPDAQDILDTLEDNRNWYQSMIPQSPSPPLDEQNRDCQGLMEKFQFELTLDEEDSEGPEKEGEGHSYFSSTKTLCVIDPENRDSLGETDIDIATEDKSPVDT

Structure (SMILES)	Activity Note: PDE4
Cc1cnc(Nc2ccc3c(c2)COB3O)nc1NC1CC1 [5-((4-(cyclopropylamino)-5-methylpyrimidin-2-yl)amino)benzo[c][1,2]oxaborol-1(3H)-ol]	+
CCCC(CC)Nc1nc(Nc2ccc3c(c2)COB3O)ncc1C(F)(F)F (stereo not shown) [5-((4-(hexan-3-ylamino)-5-(trifluoromethyl)pyrimidin-2-yl)amino)benzo[c][1,2]oxaborol-1(3H)-ol]	+
CCCC(CC)Nc1nc(Nc2ccc3c(c2)COB3O)ncc1C (stereo not shown) [5-((4-(hexan-3-ylamino)-5-methylpyrimidin-2-yl)amino)benzo[c][1,2]oxaborol-1(3H)-ol]	+
CCC(CC)Nc1nc(Nc2ccc3c(c2)COB3O)ncc1C(F)(F)F [5-((4-(pentan-3-ylamino)-5-(trifluoromethyl)pyrimidin-2-yl)amino)benzo[c][1,2]oxaborol-1(3H)-ol]	+
CCC(CC)Nc1ccnc(Nc2ccc3c(c2)COB3O)n1 [5-((4-(pentan-3-ylamino)pyrimidin-2-yl)amino)benzo[c][1,2]oxaborol-1(3H)-ol]	+
CCCNc1nc(Nc2ccc3c(c2)COB3O)ncc1C(F)(F)F [5-((4-(propylamino)-5-(trifluoromethyl)pyrimidin-2-yl)amino)benzo[c][1,2]oxaborol-1(3H)-ol]	+
CCC(C)Nc1nc(Nc2ccc3c(c2)COB3O)ncc1C(F)(F)F (stereo not shown) [5-((4-(sec-butylamino)-5-(trifluoromethyl)pyrimidin-2-yl)amino)benzo[c][1,2]oxaborol-1(3H)-ol]	+
CCC(C)Nc1nc(Nc2ccc3c(c2)COB3O)ncc1Cl (stereo not shown) [5-((4-(sec-butylamino)-5-chloropyrimidin-2-yl)amino)benzo[c][1,2]oxaborol-1(3H)-ol]	+
CCC(C)Nc1nc(Nc2ccc3c(c2)COB3O)ncc1F (stereo not shown) [5-((4-(sec-butylamino)-5-fluoropyrimidin-2-yl)amino)benzo[c][1,2]oxaborol-1(3H)-ol]	+
CCC(C)Nc1nc(Nc2ccc3c(c2)COB3O)ncc1C (stereo not shown) [5-((4-(sec-butylamino)-5-methylpyrimidin-2-yl)amino)benzo[c][1,2]oxaborol-1(3H)-ol]	+
CCC(CO)Nc1nc(Nc2ccc3c(c2)COB3O)ncc1Cl (stereo not shown) [5-((5-chloro-4-((1-hydroxybutan-2-yl)amino)pyrimidin-2-yl)amino)benzo[c][1,2]oxaborol-1(3H)-ol]	+
OB1OCc2cc(Nc3ncc(Cl)c(NCCC4CC4)n3)ccc21 [5-((5-chloro-4-((2-cyclopropylethyl)amino)pyrimidin-2-yl)amino)benzo[c][1,2]oxaborol-1(3H)-ol]	+
OB1OCc2cc(Nc3ncc(Cl)c(NC4CCCCC4)n3)ccc21 [5-((5-chloro-4-(cyclohexylamino)pyrimidin-2-yl)amino)benzo[c][1,2]oxaborol-1(3H)-ol]	+
OB1OCc2cc(Nc3ncc(Cl)c(NC4CCCC4)n3)cc(F)c21 [5-((5-chloro-4-(cyclopentylamino)pyrimidin-2-yl)amino)-7-fluorobenzo[c][1,2]oxaborol-1(3H)-ol]	+
OB1OCc2cc(Nc3ncc(Cl)c(NC4CCCC4)n3)ccc21 [5-((5-chloro-4-(cyclopentylamino)pyrimidin-2-yl)amino)benzo[c][1,2]oxaborol-1(3H)-ol]	+
CCCC(CC)Nc1nc(Nc2ccc3c(c2)COB3O)ncc1Cl (stereo not shown) [5-((5-chloro-4-(hexan-3-ylamino)pyrimidin-2-yl)amino)benzo[c][1,2]oxaborol-1(3H)-ol]	+
CS(=O)(=O)c1nc(Nc2ccc3c(c2)COB3O)ncc1Cl [5-((5-chloro-4-(methylsulfonyl)pyrimidin-2-yl)amino)benzo[c][1,2]oxaborol-1(3H)-ol]	+
CSc1nc(Nc2ccc3c(c2)COB3O)ncc1Cl [5-((5-chloro-4-(methylthio)pyrimidin-2-yl)amino)benzo[c][1,2]oxaborol-1(3H)-ol]	+
CCC(CC)Nc1nc(Nc2ccc3c(c2)COB3O)ncc1Cl [5-((5-chloro-4-(pentan-3-ylamino)pyrimidin-2-yl)amino)benzo[c][1,2]oxaborol-1(3H)-ol]	+

Structure (SMILES)	Activity Note: PDE4
CCCNc1nc(Nc2ccc3c(c2)COB3O)ncc1Cl [5-((5-chloro-4-(propylamino)pyrimidin-2-yl)amino)benzo[c][1,2]oxaborol-1(3H)-ol]	+
CCCC(CC)Nc1nc(Nc2ccc3c(c2)COB3O)ncc1F (stereo not shown) [5-((5-fluoro-4-(hexan-3-ylamino)pyrimidin-2-yl)amino)benzo[c][1,2]oxaborol-1(3H)-ol]	+
CCC(CC)Nc1nc(Nc2ccc3c(c2)COB3O)ncc1F [5-((5-fluoro-4-(pentan-3-ylamino)pyrimidin-2-yl)amino)benzo[c][1,2]oxaborol-1(3H)-ol]	+
CCCNc1nc(Nc2ccc3c(c2)COB3O)ncc1F [5-((5-fluoro-4-(propylamino)pyrimidin-2-yl)amino)benzo[c][1,2]oxaborol-1(3H)-ol]	+
Cc1cnc(Nc2ccc3c(c2)COB3O)nc1NC(C)c1ccccc1 (stereo not shown) [5-((5-methyl-4-((1-phenylethyl)amino)pyrimidin-2-yl)amino)benzo[c][1,2]oxaborol-1(3H)-ol]	+
CCC(Nc1nc(Nc2ccc3c(c2)COB3O)ncc1C)c1ccccc1 (stereo not shown) [5-((5-methyl-4-((1-phenylpropyl)amino)pyrimidin-2-yl)amino)benzo[c][1,2]oxaborol-1(3H)-ol]	+
Cc1cnc(Nc2ccc3c(c2)COB3O)nc1Nc1ccccc1OC(F)(F)F [5-((5-methyl-4-((2-(trifluoromethoxy)phenyl)amino)pyrimidin-2-yl)amino)benzo[c][1,2]oxaborol-1(3H)-ol]	+
Cc1cnc(Nc2ccc3c(c2)COB3O)nc1Nc1ccccc1C(F)(F)F [5-((5-methyl-4-((2-(trifluoromethyl)phenyl)amino)pyrimidin-2-yl)amino)benzo[c][1,2]oxaborol-1(3H)-ol]	+
Cc1cnc(Nc2ccc3c(c2)COB3O)nc1NC1CCCC(C)C1 (stereo not shown) [5-((5-methyl-4-((3-methylcyclohexyl)amino)pyrimidin-2-yl)amino)benzo[c][1,2]oxaborol-1(3H)-ol]	+
Cc1cnc(Nc2ccc3c(c2)COB3O)nc1NC1CCC(C)CC1 (stereo not shown) [5-((5-methyl-4-((4-methylcyclohexyl)amino)pyrimidin-2-yl)amino)benzo[c][1,2]oxaborol-1(3H)-ol]	+
Cc1ccccc1Nc1nc(Nc2ccc3c(c2)COB3O)ncc1C [5-((5-methyl-4-(o-tolylamino)pyrimidin-2-yl)amino)benzo[c][1,2]oxaborol-1(3H)-ol]	+
CCC(CC)Nc1nc(Nc2ccc3c(c2)COB3O)ncc1C [5-((5-methyl-4-(pentan-3-ylamino)pyrimidin-2-yl)amino)benzo[c][1,2]oxaborol-1(3H)-ol]	+
CCC(CC)Oc1nc(Nc2ccc3c(c2)COB3O)ncc1C [5-((5-methyl-4-(pentan-3-yloxy)pyrimidin-2-yl)amino)benzo[c][1,2]oxaborol-1(3H)-ol]	+
CCC(CC)Sc1nc(Nc2ccc3c(c2)COB3O)ncc1C [5-((5-methyl-4-(pentan-3-ylthio)pyrimidin-2-yl)amino)benzo[c][1,2]oxaborol-1(3H)-ol]	+
Cc1cnc(Nc2ccc3c(c2)COB3O)nc1Nc1ccccc1 [5-((5-methyl-4-(phenylamino)pyrimidin-2-yl)amino)benzo[c][1,2]oxaborol-1(3H)-ol]	+
CCCNc1nc(Nc2ccc3c(c2)COB3O)ncc1C [5-((5-methyl-4-(propylamino)pyrimidin-2-yl)amino)benzo[c][1,2]oxaborol-1(3H)-ol]	+
CCC(CC)Nc1nc(Nc2cc(F)c3c(c2)COB3O)ncc1C(F)(F)F [7-fluoro-5-((4-(pentan-3-ylamino)-5-(trifluoromethyl)pyrimidin-2-yl)amino)benzo[c][1,2]oxaborol-1(3H)-ol]	+
CCC(CC)Nc1nc(Nc2cc(F)c3c(c2)COB3O)ncc1C [7-fluoro-5-((5-methyl-4-(pentan-3-ylamino)pyrimidin-2-yl)amino)benzo[c][1,2]oxaborol-1(3H)-ol]	+
